The text below walks through data of PMC7468280 (Scientific Reports, 2020).

“Also recorded” adds a separate entry of the source. Where two headings read alike, the source gives them in different places. Positions of bridges follow the written chain, without caps; N, C: chain ends. Non-standard residues stand in square brackets, D forms with d. Residues, ends and D or L forms follow the SMILES beside them. No end group written: not given here.

In series [1] the test system is HIV-1BaL. The following applies: read-out: IC50 against HIV-1BaL, TZM-bl cells sustained, peptide 1 h before virus, 48 h culture in presence of drug (sustained), luciferase, mean ± SEM of three independent experiments in triplicate.
The subject of series [2] is HIV-1BaL. The note with it: human colorectal explants, p24 ELISA, mean ± SEM of three independent experiments in triplicate. Background: In an ELISA, binding on a coated surface is turned into a signal by an enzyme label.
A further series is described as follows: Stability in human serum. It counts as in vitro ADME. The following applies: 1 mg/ml peptide, 90% human serum in HBSS, 37 °C, HPLC at 220 nm, three replicates (b16 says human plasma). As to the method: Figure 3 Representation of the percentage of peptide that remains in solution with respect to the initial one at different times. The percentage is calculated by dividing the area (HPLC analysis) at time “t” by the initial area of the peptide in the test conditions. Bar errors represents SEM of three replicates. Software GraphPad Prism 5.0 (https://graphpad-prism.software.informer.com/5.0/) was used.
The stability of E1P47 peptides was studied in human serum, a protease-rich media. Briefly, a concentration of 1 mg/ml of each peptide was incubated with 90% human serum in Hanks Balanced Salt Solution (HBSS) at 37 °C and aliquots of 40 µl were taken at different time-points during 24 h and treated with 200 µl of methanol to immediately precipitate the serum proteins. After 30 min of centrifugation at 4 °C, the supernatant was analysed by HPLC at 220 nm to calculate the content of intact peptide in each sample and by UPLC/MS to identify the main metabolites generated after the enzymatic hydrolysis.

Series [3] is described as follows: 90% human serum in Hanks Balanced Salt Solution (HBSS). The following applies: 37 °C, up to 24 h.
Setting [4] is: read-out: IC50 against HIV-1BaL, colorectal explants pulse, peptide 1 h before and 2 h during virus (3 h pulse), washed, 15 days culture without drug.
Where [5] appears, read: read-out: IC50 against HIV-1BaL, colorectal explants sustained, peptide before and during virus and throughout 15 days culture (sustained).

Regarding `CC[C@H](C)[C@H](NC(=O)[C@@H](NC(=O)CNC(=O)[C@H](CCCNC(=N)N)NC(=O)[C@H](Cc1c[nH]c2ccccc12)NC(=O)[C@H](Cc1ccccc1)NC(=O)[C@H](CC(=O)O)NC(=O)[C@H](Cc1ccccc1)NC(=O)[C@@H]1CCCN1C(=O)[C@@H](NC(=O)[C@@H]1CCCCNC(=O)CC[C@H](NC(=O)[C@H](CC(C)C)NC(=O)[C@@H](NC(=O)[C@@H](N)Cc2c[nH]c3ccccc23)[C@@H](C)CC)C(=O)N[C@@H](Cc2ccc(O)cc2)C(=O)N[C@@H](CC(C)C)C(=O)N[C@@H](Cc2c[nH]c3ccccc23)C(=O)N1)C(C)C)C(C)C)C(N)=O` [StP2-E1P47] (H-WILEYLWKVPFDFWRGVI-NH2; lactam 4-8), the IC50 with HIV-1BaL [1] is 0.16 ± 0.01 µM; in the series on HIV-1BaL [2] (setting [4]), 32 ± 15.5 µM; with HIV-1BaL [2] (setting [5]), 2.9 ± 0.4 µM.
`CC[C@@H](C)[C@@H](N)C(=O)N[C@@H](C(=O)NCC(=O)N[C@H](CCCNC(=N)N)C(=O)N[C@H](Cc1c[nH]c2ccccc12)C(=O)N[C@H](Cc1ccccc1)C(=O)N[C@H](CC(=O)O)C(=O)N[C@H](Cc1ccccc1)C(=O)N1CCC[C@@H]1C(=O)N[C@@H](C(=O)N[C@H](CCCCN)C(=O)N[C@H](Cc1c[nH]c2ccccc12)C(=O)N[C@H](CC(C)C)C(=O)N[C@H](Cc1ccc(O)cc1)C(=O)N[C@H](CCC(=O)O)C(=O)N[C@H](CC(C)C)C(=O)N[C@@H](C(=O)N[C@H](Cc1c[nH]c2ccccc12)C(N)=O)[C@H](C)CC)C(C)C)C(C)C` [RE-E1P47] (H-[dI][dV]G[dR][dW][dF][dD][dF][dP][dV][dK][dW][dL][dY][dE][dL][dI][dW]-NH2): the “stability to human plasma/serum proteases (in words)” value in “Stability in human serum” (up to 24 h) is reported as “remained practically unaltered for almost 24 h”. For the same compound, the half-inhibitory concentration (IC50) is 28.7 ± 23.2 µM in the series on HIV-1BaL [2] (setting [4]) and 3.7 ± 1.7 µM in the series on HIV-1BaL [2] (setting [5]).
`CC[C@H](C)[C@H](NC(=O)[C@@H](NC(=O)CNC(=O)[C@H](CCCNC(=N)N)NC(=O)[C@H](Cc1c[nH]c2ccccc12)NC(=O)[C@H](Cc1ccccc1)NC(=O)[C@H](CC(=O)O)NC(=O)[C@H](Cc1ccccc1)NC(=O)[C@@H]1CCCN1C(=O)[C@@H](NC(=O)[C@H](CCCCN)NC(=O)[C@H](Cc1c[nH]c2ccccc12)NC(=O)[C@H](CC(C)C)NC(=O)[C@H](Cc1ccc(O)cc1)NC(=O)[C@H](CCC(=O)O)NC(=O)[C@H](CC(C)C)NC(=O)[C@@H](NC(=O)[C@@H](N)Cc1c[nH]c2ccccc12)[C@@H](C)CC)C(C)C)C(C)C)C(N)=O` [E1P47] (H-WILEYLWKVPFDFWRGVI-NH2): in “Stability in human serum” (8 h, methanol precipitation, read-out: peptide degraded at 8 h), the metabolised at 8 h, 1 mg/ml is ~50%. In addition, the IC50 worked out at 0.76 ± 0.08 µM in the series on HIV-1BaL [1], 38.5 ± 17.2 µM with HIV-1BaL [2] (setting [4]) and 8 ± 4.6 µM with HIV-1BaL [2] (setting [5]).
For WILEYLWKVPFDFWRGVI-NH2, in series [3], the cleaved bond result is reported as “Phe11-D12, major” and the not cleaved entry is on record as “intact”.
Take WILEYLWKVPFDFWKGVI-NH2: in series [3], the cleaved bond result was “Trp7-K8, major” and the not cleaved result was “intact”.
Consider WILEYLWKVPFDFWRGVI, for which, in series [3], the cleaved bond result is reported as “Glu4-Y5, major; also recorded: Gly16-V17, major; also recorded: Trp1-I2, major; also recorded: Phe11-D12, major; also recorded: Trp7-K8, major”.
As for `CC[C@H](C)[C@H](NC(=O)[C@@H](NC(=O)CNC(=O)[C@@H]1CCCCNC(=O)C[C@H](NC(=O)[C@H](Cc2ccccc2)NC(=O)[C@@H]2CCCN2C(=O)[C@@H](NC(=O)[C@H](CCCCN)NC(=O)[C@H](Cc2c[nH]c3ccccc23)NC(=O)[C@H](CC(C)C)NC(=O)[C@H](Cc2ccc(O)cc2)NC(=O)[C@H](CCC(=O)O)NC(=O)[C@H](CC(C)C)NC(=O)[C@@H](NC(=O)[C@@H](N)Cc2c[nH]c3ccccc23)[C@@H](C)CC)C(C)C)C(=O)N[C@@H](Cc2ccccc2)C(=O)N[C@@H](Cc2c[nH]c3ccccc23)C(=O)N1)C(C)C)C(N)=O` [StP1-E1P47] (H-WILEYLWKVPFDFWKGVI-NH2; lactam 12-15), the IC50 in the series with HIV-1BaL [1] came out at 0.11 ± 0.01 µM; with HIV-1BaL [2] (setting [4]), 33 ± 27.4 µM; in the series with HIV-1BaL [2] (setting [5]) it was 2.8 ± 0.5 µM.

For orientation: IC50 means the concentration at which inhibition is half-maximal.
